One may read the EC50 as the concentration that produces a half-maximal response. The IC50 is the concentration needed to halve the response being measured.

Where two headings read alike, the source gives them in different places.

In assay [1] the test system is Rat DRG neurones. The assay is described as follows: 45Ca calcium uptake assay in primary cultures of DRG neurones. The class given is cell-based. As for the experimental part: Primary cultures of adult DRG neurones are prepared according to standard protocols [Wood et al., J. Neuroscience 8:3208-3220 (1988)]. Cells are plated at a density of 2000 per well on 96 well view plates pre-coated with poly-ornithine and laminin and cultured in Hams F14 supplemented with 100 ng/ml NGF for four days. On the day of the assay, the cells are washed eight times in a Denley cell washer with calcium/magnesium free HBSS plus 10 mM HEPES, pH7.4. After washing the wells contain approximately 75 μl of buffer. […] For negative control, capsaicin is omitted. Samples are incubated at RT for 10 min, then washed four times with HBSS/10 mM HEPES pH 7.4. The remaining buffer is removed from the wells and replaced with 25 μl of 0.1% SDS. After about 10 min 200 μl of Microscint 40 scintillant is added and samples are counted on a Packard Topcount.

A further assay addresses T1, human vanilloid receptor (Homo sapiens, UniProt Q8NER1).
T1 construct: expressed in transfected cells
Briefly: Activation of human vanilloid receptor expressed in mammalian cells. The class given is cell-based.

Assay [2] addresses T2, hVR1 (Homo sapiens, UniProt Q8NER1).
T2 construct: expressed in transfected cells
Briefly: Aequorin luminescence assay, hVR1 in CHO cells. In kind it is cell-based. The protocol:
(§1) All the plates for use in a day are set up at the same time. The first plate is used in the assay after 2.5 h incubation with coelenterazine h. Subsequent plates are used at about 10 min intervals. […] At the start of the assay, the medium containing coelenterazine h is removed and replaced with 100 μl of HBSS buffered to pH 7.4 with 10 mM HEPES containing test compounds where appropriate. Cells are incubated for at least 10 min at RT. They are then placed in the measuring chamber of a luminometer (Wallac Microbeta Jet). Agonist is injected in a volume of 20 μl HBSS and the luminescence signal is collected for 20 sec.

In assay [3] the test system is Rat DRG neurones. The conditions noted are these: inhibition of capsaicin response; from Wood et al (1988); read-out: IC50 (nM) (Ca uptake assay) Rat DRG neurones; cited from earlier work.
In another assay the target is T3, rVR1 (Rattus norvegicus, UniProt O35433).
T3 construct: expressed in transfected cells
T3 sequence (O35433 whole entry): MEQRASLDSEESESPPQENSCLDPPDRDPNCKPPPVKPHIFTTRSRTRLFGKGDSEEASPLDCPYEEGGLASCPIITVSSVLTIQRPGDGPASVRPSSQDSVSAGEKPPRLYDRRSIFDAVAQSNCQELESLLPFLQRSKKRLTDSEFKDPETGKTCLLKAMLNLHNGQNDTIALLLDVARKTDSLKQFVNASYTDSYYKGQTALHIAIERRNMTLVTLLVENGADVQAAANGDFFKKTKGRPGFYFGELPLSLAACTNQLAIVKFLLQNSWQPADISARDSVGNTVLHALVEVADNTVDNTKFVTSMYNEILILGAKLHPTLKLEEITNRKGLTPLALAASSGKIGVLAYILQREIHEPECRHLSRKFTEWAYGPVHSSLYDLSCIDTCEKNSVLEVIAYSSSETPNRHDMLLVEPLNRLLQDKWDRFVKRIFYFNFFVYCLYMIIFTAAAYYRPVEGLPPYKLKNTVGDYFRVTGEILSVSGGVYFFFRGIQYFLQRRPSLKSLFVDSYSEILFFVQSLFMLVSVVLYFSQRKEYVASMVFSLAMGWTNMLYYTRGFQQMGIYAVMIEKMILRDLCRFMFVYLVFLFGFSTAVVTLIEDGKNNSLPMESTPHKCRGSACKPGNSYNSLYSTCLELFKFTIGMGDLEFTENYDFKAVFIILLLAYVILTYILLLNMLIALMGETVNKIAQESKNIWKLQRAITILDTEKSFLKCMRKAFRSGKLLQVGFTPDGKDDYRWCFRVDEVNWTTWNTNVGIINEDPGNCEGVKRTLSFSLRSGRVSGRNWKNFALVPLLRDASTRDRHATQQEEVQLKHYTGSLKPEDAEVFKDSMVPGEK
The assay is described as follows: Aequorin luminescence assay, rVR1 in CHO cells. The class given is cell-based. As for the experimental part: as §1

In assay [4] the target is T2, hVR1. The assay is described as follows: Fluorometric Fluo-3 assay using the FLIPR, hVR1 in CHO cells. The class given is cell-based.
Experimental: Cells resulting from Examples A1 or A2 are plated at a density of 50,000 cells/well in Costar Viewplates. The cells are incubated at 37° C. in a humidified atmosphere (5% CO2/95% air) for 24 h. Medium is removed by flicking the plates and replaced with 100 μl HBSS containing 2 μM Fluo-3, AM (Molecular Probes) in the presence of 2.5 mM probenicid (Sigma) and 0.02% pluronic acid (Molecular Probes). The cells are incubated at 37° C. in a humidified atmosphere (5% CO2/95% air) for 1 h. Plates are flicked to remove excess of Fluo-3, AM, washed twice with HBSS and refilled with 100 μl of HBSS containing screening compounds. Incubation in the presence of screening compounds lasts between 10 and 20 min. Plates are then placed in the cell plate stage of the FLIPR (Molecular Devices, Sunnyvale, Calif., USA). A baseline consisting in 5 measurements of 0.4 sec each (laser: excitation 488 nm at 0.6 W, CCD camera opening of 0.4 sec) is recorded.
[5] abbreviates: inhibition of capsaicin response, capsaicin 1 μM.

T2 sequence (Q8NER1 whole entry): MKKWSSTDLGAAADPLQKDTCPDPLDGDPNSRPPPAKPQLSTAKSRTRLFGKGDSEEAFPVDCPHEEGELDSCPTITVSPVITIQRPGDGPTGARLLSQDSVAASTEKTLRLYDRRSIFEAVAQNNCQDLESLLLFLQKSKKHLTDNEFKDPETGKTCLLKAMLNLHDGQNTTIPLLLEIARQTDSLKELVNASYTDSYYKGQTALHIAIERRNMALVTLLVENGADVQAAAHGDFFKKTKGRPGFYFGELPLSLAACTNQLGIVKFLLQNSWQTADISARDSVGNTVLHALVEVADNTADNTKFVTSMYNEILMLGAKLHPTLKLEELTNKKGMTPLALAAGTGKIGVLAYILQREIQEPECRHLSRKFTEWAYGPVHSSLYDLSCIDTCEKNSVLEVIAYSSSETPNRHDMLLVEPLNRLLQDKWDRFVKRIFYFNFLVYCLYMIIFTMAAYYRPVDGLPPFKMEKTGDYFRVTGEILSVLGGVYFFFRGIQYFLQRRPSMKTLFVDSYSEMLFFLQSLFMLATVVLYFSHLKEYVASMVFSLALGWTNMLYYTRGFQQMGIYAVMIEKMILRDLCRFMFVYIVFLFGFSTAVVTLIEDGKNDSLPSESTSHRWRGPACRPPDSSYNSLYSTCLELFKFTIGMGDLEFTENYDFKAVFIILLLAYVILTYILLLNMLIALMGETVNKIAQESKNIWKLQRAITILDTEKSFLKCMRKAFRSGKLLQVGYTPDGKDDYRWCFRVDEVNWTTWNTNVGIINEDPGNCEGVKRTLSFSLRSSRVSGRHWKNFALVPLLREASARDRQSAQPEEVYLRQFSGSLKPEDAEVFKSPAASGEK
T1 sequence (Q8NER1 whole entry): as above

Take `COc1cc(CNC(=O)CCCC/C=C/C(C)C)ccc1O` [Capsaicin]: in the assay on Rat DRG neurones [1] (10 min), the concentration for a half-maximal effect (EC50) amounted to 170 ± 19 nM. Further, the “Activation of the human vanilloid receptor” value on human vanilloid receptor is recorded as “activated by capsaicin”.
For the compound `N.N.N.N.N.N.N.N.N.N.N.N.N.N.[Cl-].[Cl-].[Cl-].[Cl-].[Cl-].[Cl-].[O-2].[O-2].[Ru+3].[Ru+3].[Ru+4]` [Rr, Ruthenium red], the IC50 at hVR1 [2] (setting [5]) is 220 ± 32 nM; in the assay on Rat DRG neurones [3] it was 50 nM; on rVR1 (setting [5]) it was 18 ± 8.3 nM. In addition, on hVR1 [2] (measured as in Example B1, stated generally for the assays), the “Blocking of capsaicin responses” value is given as “effective blocker of capsaicin responses”.
Consider `Oc1cc2c(cc1O)CN(C(=S)NCCc1ccc(Cl)cc1)CCC2` [Cz, Capsazepine], for which the IC50 against hVR1 [2] was 120 ± 12 nM; against hVR1 [4] it was 130 ± 32 nM; in the assay with Rat DRG neurones [1] it was 800 ± 40 nM; at rVR1 it was 320 ± 110 nM. On human vanilloid receptor, the “Block of activation by capsaicin, temperatures greater than 42° C. and pH less than 5.5” value is listed as “blocked substantially or completely”.
